Experimental data as given in BindingDB's records for PubMed 6655559 (University of California, 1983).
“And” between values parts separate entries of the source, which are not always exact repeats. Equal values may be shown once.

Key:
[1] = target: D(2) dopamine receptor (Rattus norvegicus, UniProt P61169)
[2] = target: D(2) dopamine receptor (Oryctolagus cuniculus, UniProt G1T1Q0)
D(2) dopamine receptor (Oryctolagus cuniculus, UniProt G1T1Q0), sequence (G1T1Q0 whole entry): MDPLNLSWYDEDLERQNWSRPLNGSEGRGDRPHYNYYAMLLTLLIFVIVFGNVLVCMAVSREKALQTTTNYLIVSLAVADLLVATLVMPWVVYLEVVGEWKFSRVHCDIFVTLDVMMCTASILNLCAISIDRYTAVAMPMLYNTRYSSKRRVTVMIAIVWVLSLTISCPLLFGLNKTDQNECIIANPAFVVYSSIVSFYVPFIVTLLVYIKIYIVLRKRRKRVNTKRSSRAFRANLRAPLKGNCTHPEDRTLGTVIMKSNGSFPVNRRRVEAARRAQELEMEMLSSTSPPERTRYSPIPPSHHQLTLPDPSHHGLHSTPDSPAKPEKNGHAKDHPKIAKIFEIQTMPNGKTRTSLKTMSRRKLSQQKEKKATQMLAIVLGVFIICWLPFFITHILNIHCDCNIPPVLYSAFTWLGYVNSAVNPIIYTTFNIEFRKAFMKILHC

D(2) dopamine receptor (Rattus norvegicus, UniProt P61169), sequence (P61169 whole entry): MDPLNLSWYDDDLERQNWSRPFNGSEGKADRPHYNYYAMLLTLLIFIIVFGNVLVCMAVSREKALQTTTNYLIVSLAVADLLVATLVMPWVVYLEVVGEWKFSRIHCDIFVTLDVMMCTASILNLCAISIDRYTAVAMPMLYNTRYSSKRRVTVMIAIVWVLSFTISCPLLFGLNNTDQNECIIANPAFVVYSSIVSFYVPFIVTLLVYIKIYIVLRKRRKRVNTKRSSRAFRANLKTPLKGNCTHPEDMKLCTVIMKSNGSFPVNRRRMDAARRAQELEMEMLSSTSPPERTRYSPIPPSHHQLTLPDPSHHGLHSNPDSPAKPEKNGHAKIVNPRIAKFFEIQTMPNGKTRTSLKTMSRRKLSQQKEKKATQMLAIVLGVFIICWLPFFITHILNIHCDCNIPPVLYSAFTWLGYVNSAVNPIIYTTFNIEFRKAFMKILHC

Compound	Ki [1]	Ki [2]
CCCN(CCC)CCc1ccc(O)c(O)c1	130 nM	37 nM and 85 nM
O=c1[nH]c2ccccc2n1CCCN1CCC(n2c(=O)[nH]c3cc(Cl)ccc32)CC1	–	3.3 nM and 4.9 nM
NCCc1ccc(O)c(O)c1	–	250 nM and 200 nM
O=C(c1ccc(F)cc1)C1CCN(CCn2c(=O)[nH]c3ccccc3c2=O)CC1 [3-(2-{4-[(4-fluorophenyl)carbonyl]piperidin-1-yl}ethyl)-1,2,3,4-tetrahydroquinazoline-2,4-dione]	720 nM and 580 nM	880 nM
Nc1nc2c(ncn2[C@@H]2O[C@H](COP(=O)(O)OP(=O)(O)OP(=O)(O)O)[C@@H](O)[C@H]2O)c(=O)[nH]1 [Dopamine+ (GTP+)]	1300 nM and 2900 nM	–
Cc1ccc(N(CC2=NCCN2)c2cccc(O)c2)cc1 [SMR000059054]	1500 nM and 750 nM	1200 nM
